The test system of series [1] is serotonin. Kind of series: antiserotonin action in respect of bronchospasm in the guinea-pig, method of Konzett and Rossler. The class given is in vivo. The following applies: serotonin 20 μg/kg intravenously, anaesthetised guinea-pigs. The method, then:
The antiserotonin action in respect of bronchospasm has been studied in the guinea-pig under the following conditions:
The bronchospasm is recorded by the method of Konzett and Rossler, which comprises connecting the trachea of the guinea-pig to an artificial respiration pump, which passes a constant volume of air, slightly greater than the respiratory capacity of the animal, into the bronchi at a physiological rhythm. The excess quantity of air, which varies according to the diameter of the bronchi, is discharged to a special manometric device which measures the volume of air at each inhalation.
The serotonin is administered intravenously to the guinea-pigs in a dose of 20 μg/kg. The guinea-pigs have previously been anaesthetised with ethyl carbamate, thus producing a bronchial spasm.
The product to be studied is then administered intravenously, after which the administration of serotonin is repeated one minute later. The percentage inhibition of bronchospasm is measured for each dose of the product to be studied, then the antiserotonin DE50 relative to bronchospasm in the guinea-pig is determined.

Series [2] in a line: acute toxicity in mice (LD50). The series is classed as in vivo. Particulars: mouse, in vivo, male mouse. The source says:
(§1) The acute toxicity of the compounds according to the invention has been studied in mice. The lethal doses 50 are set out in the table which follows:
(§2) LD50 DETERMINED IN THE MALE MOUSE -

Series [3] concerns apomorphine. Kind of series: antiemetic power relative to apomorphine, dogs, method of Chen and Ensor. The following applies: s.c. 30 minutes before apomorphine 100 μg/kg s.c.; for ED50: Canis lupus familiaris, sc, read-out: Antiapomorphine ED50 in the dog. The class given is in vivo, dog. On the procedure:
The compounds of the invention have undergone other pharmacodynamic tests, and in particular their antiemetic power relative to apomorphine has been measured.
The test has been carried out on dogs by the method of Chen and Ensor.
The compounds of the invention are administered subcutaneously, 30 minutes before the apomorphine, which is administered subcutaneously in a dose of 100 μg/kg.

In series [4] the test system is serotonin. Nature of the series: antiserotonin action in connection with stomach ulceration in the rat. The series is classed as in vivo. The following applies: sc. On the procedure: The antiserotonin action in connection with stomach ulceration has been studied in the rat under the following conditions:
30 mg/kg of serotonin is administered subcutaneously to female rats in two stages, with an interval of 16 hours. The product being studied is administered subcutaneously at the same time as the serotonin, in two stages with increasing doses. A group of 30 animals is used for each dose and a group of 60 animals is used as the control. The animals are sacrificed 22 hours after the first injection of serotonin, and their stomachs are taken out and examined. The percentage protection for each dose studied is determined, then the DE50, the dose protecting 50% of the animals, from gastric ulceration, is measured graphically.

Series [5] deals with patients suffering from migraine. Kind of series: clinical treatment of migraine. The class given is in vivo. The following applies: single patients, 100-300 mg per day. The method, then:
Compound (1) was administered in a dose of three tablets per day (300 mg) to a patient suffering from frequent migraines; these obliged hereto interrupt any professional activity for three or four days per month.
Compound (1) was administered in a daily dose of 300 mg taken in three portions, to two twin brothers who suffered each month from attacks of migraine accompanied by vomiting.
Compound (2) was administered continuously, in doses of two tablets per day (200 mg), to a person who had suffered from attacks of migraine for four years. The attacks had not responded to curative treatment (ergotamine and caffeine) or preventive treatment.
Compound (2) was administered in doses of three tablets per day (300 mg) to a person suffering from quasi permanent occipital cephalalgia and several times a week from attacks of migraine with right hemicrania, photophobia and nausea.

Series [6] deals with patients suffering from catatonic hebephrenia. Nature of the series: clinical treatment of catatonic hebephrenia. The series is classed as in vivo. Particulars: 100-300 mg daily oral or intramuscular, of 21 patients. The method, then:
21 patients suffering from catatonic hebephrenia were treated with compound (1), a daily dose of 100-300 mg being given orally or by intramuscular injection. In 13 cases removal of inhibitions was observed, sometimes with a reversal of mood, which made it possible to make contact with the patient.

The test system of series [7] is alcoholic or heroin addicts. The class given is in vivo. The following applies: 200 mg per day oral or intramuscular, of 30 patients. The method, then:
Thus for example, 200 mg per day of compound (1) was administered orally or by intramuscular injection to 30 patients who were alcoholic or heroin addicts. In 28 cases the product acted rapidly and the drug addicts asked for more. Its effect is different from that of opiates and the main antalgics.

In series [8] the test system is male rats. Kind of series: cataleptic action in male rats, subcutaneous. The class given is in vivo, rat. Particulars: 200 mg/kg subcutaneously, after 7 hours. The method, then:
The cataleptic action has been studied as follows.
Benzamides are administered subcutaneously to male rats. The criterion taken for the cataleptic state is that the animal should be immobile for 30 seconds with its rear limbs apart, arranged carefully on wooden cubes 4 cm high, which thus puts the animal in an unaccustomed and uncomfortable position.
The cataleptic action is measured when the effect is at its maximum, i.e. 5 to 7 hours after the substance has been administered.

Series [9] has as its system male mouse. Kind of series: acute toxicity in mice (LD50). The series is classed as in vivo.
Source text: as §1, §2

Series [10] concerns patients suffering from sudden attacks of delirium. Kind of series: clinical treatment of sudden attacks of delirium. The class given is in vivo. The following applies: 350 mg per day oral or intramuscular. On the procedure: 41 patients suffering from sudden attacks of delirium were treated with 350 mg per day of compound (2), administered orally or by intramuscular injection.

Setting [11] is: Rattus norvegicus, 22 h, female rats, serotonin 30 mg/kg s.c. in two stages, dose protecting 50% of the animals, read-out: Antiserotonin ED50 in respect of stomach ulceration, in the rat.

SMILES strings stand for the structures. “Also recorded” adds a separate entry of the source. Where a name gives a salt, the structure may show the parent alone. Read-outs that look alike come from different tables or passages of the source.

What is called LD50 is the dose expected to kill half of the subjects tested. A high value points to lower toxicity. Take `CCN1CCCC1CNC(=O)c1cc(S(=O)(=O)CC)c(N)cc1OC` (single isomer, unassigned) [Compound 4, Dextrorotatory tartrate of N-[1-ethyl 2-pyrrolidylmethyl]2-methoxy 4-amino 5-ethylsulphonyl benzamide]: the “Antiserotonin ED50 relative to bronchospasm in the guinea-pig” value in [1] stood at 106 μg/kg/IV. Also, the LD50 is 188 mg/kg in [2] (ip, I.P.); 39.8 mg/kg in series [2] (iv); 1560 to 1620 mg/kg in [2] (po); 254 to 263 mg/kg in series [2] (sc, subcutaneous). Also, the “Antiapomorphine ED50 in the dog” value in [3] is given as 12 μg/kg/s.c. Also, the ED50 in series [4] (setting [11]) is 0.46 mg/kg.

In the case of `COc1cc(N)c(S(C)(=O)=O)cc1C(=O)NCC1CCCN1C` (stereo not drawn) [Compound 9, N-[1-methyl 2-pyrrolidylmethyl]2-methoxy 4-amino 5-methylsulphonyl benzamide], the LD50 was 200 to 216 mg/kg in series [2] (ip, I.P.); 54 mg/kg in series [2] (iv); 202 mg/kg in series [2] (sc, subcutaneous). Besides, the values for the ED50 in series [3] and in [4] (setting [11]) were 0.007 mg/kg and 1.14 mg/kg, respectively.

On to `CCN1CCCC1CNC(=O)c1cc(S(C)(=O)=O)c(N)cc1OC` (stereo not drawn) [Compound 8, N-[1-ethyl 2-pyrrolidylmethyl]2-methoxy 4-amino 5-methylsulphonyl benzamide], for which the LD50 was in the range of 234 to 238 mg/kg in [2] (ip, I.P.); 46.5 to 50 mg/kg in series [2] (iv); 625 to 660 mg/kg in series [2] (po); 208 to 225 mg/kg in [2] (sc, subcutaneous). Also, the ED50 in [3] worked out at 0.0027 mg/kg; in series [4] (setting [11]) it was 3 mg/kg.

For `CCN1CCCC1CNC(=O)c1cc(S(=O)(=O)CC)c(N)cc1OC` (stereo not drawn) [Compound 1, N-(1-ethyl 2-pyrrolidylmethyl) 2-methoxy 4-amino 5-ethylsulphonyl benzamide], the “Antiserotonin ED50 relative to bronchospasm in the guinea-pig” value in [1] came to 74 μg/kg/IV. Besides, in [5], the “effect on migraine (in words)” value is “The migraines decreased from the first month and disappeared altogether from the second month; also recorded: For one of the twins the migraine disappeared immediately; also recorded: For the other the pain disappeared from the second method and only a few attacks of nausea persisted”. Further, the median lethal dose (LD50) in [2] (ip, I.P.) fell in the range of 175 to 180 mg/kg; in series [2] (iv), 56 to 60 mg/kg; in series [2] (po) it was 1020 to 1050 mg/kg; in series [2] (sc, subcutaneous), 224 to 250 mg/kg. The ED50 stood at 0.00029 mg/kg in [3] and 1 mg/kg in [4] (setting [11]). Also, the “cases with removal of inhibitions” value in [6] is 13 cases. In addition, in [7], the “cases in which the product acted rapidly” value is recorded as 28 cases.

On to `CCCS(=O)(=O)c1cc(C(=O)NCC2CCCN2CC)c(OC)cc1N` (stereo not drawn) [Compound 7, N(1ethyl 2pyrrolidylmethyl) 2methoxy 4amino 5propylsulphonyl benzamide], for which the LD50 was 160 to 165 mg/kg in series [2] (ip, I.P.); 43 to 46.8 mg/kg in [2] (iv); 570 to 629 mg/kg in [2] (po); 140 to 144 mg/kg in series [2] (sc, subcutaneous). For the same compound, the ED50 in series [3] amounted to 0.0016 mg/kg; in series [4] (setting [11]), 3.2 mg/kg.

In the case of `CCN1CCCC1CNC(=O)c1cc(S(N)(=O)=O)ccc1OC` (stereo not drawn) [sulpiride, reference compound], in [4] (rat, comparator value in text, read-out: antiserotonin ED50 relative to stomach ulceration in the rat (comparator, text)), the ED50 worked out at 110 mg/kg.

Regarding `CCS(=O)(=O)c1cc(C(=O)NCC2CCCN2C)c(OC)cc1N` (single isomer, unassigned) [Compound 6, Dextrorotatory N-1-methyl 2-pyrrolidylmethyl 2-methoxy 4-amino 5-ethylsulphonyl benzamide], the LD50 in [2] (ip, I.P.) lay in the range of 304 to 322 mg/kg; in [2] (iv), 62 to 64 mg/kg; in [2] (po), 1190 to 1260 mg/kg; in series [2] (sc, subcutaneous), 380 to 396 mg/kg. The ED50 is 0.008 mg/kg in series [3] and 0.34 to 0.44 mg/kg in series [4] (setting [11]).

Turning to `CCN1CCCC1CNC(=O)c1cc(S(=O)(=O)CC)c(N)cc1OC` (single isomer, unassigned) [Compound 5, Levorotatory tartrate of N-[1-ethyl 2-pyrrolidylmethyl]2-methoxy 4-amino 5-ethylsulphonyl benzamide], in series [8], the “cataleptic state, % of the animals” value is listed as 30%. Further, the LD50 in series [9] (I.P.) is 122 to 128 mg/kg; in [9] (intravenous), 44.8 mg/kg; in series [9] (oral), 1109 to 1160 mg/kg; in [9] (subcutaneous) it was 137 to 149 mg/kg. The “Antiapomorphine ED50 in the dog” value in series [3] is given as 0.28 μg/kg/s.c.

`C=CCN1CCCC1CNC(=O)c1cc(S(=O)(=O)CC)c(N)cc1OC` (stereo not drawn) [Compound 3, N-[1-allyl 2-pyrrolidylmethyl]2-methoxy 4-amino 5-ethylsulphonyl benzamide]: the LD50 fell in the range of 216 to 217 mg/kg in [2] (ip, I.P.); 106 to 107 mg/kg in [2] (iv); 2230 to 2380 mg/kg in series [2] (po); 312 to 330 mg/kg in [2] (sc, subcutaneous). In addition, the ED50 is 0.00065 mg/kg in [3] and 0.65 mg/kg in [4] (setting [11]).

As for `CCS(=O)(=O)c1cc(C(=O)NCC2CCCN2C)c(OC)cc1N` (stereo not drawn) [Compound 2, N-[1-methyl 2-pyrrolidylmethyl]2-methoxy 4-amino 5-ethylsulphonyl benzamide], the “effect on migraine (in words)” value in series [5] was “their intensity is decreasing; also recorded: From the third week the migraine attacks disappeared completely”. Moreover, the LD50 was 210 to 217 mg/kg in series [2] (ip, I.P.); 56 to 57 mg/kg in [2] (iv); 1330 mg/kg in series [2] (po); 280 mg/kg in [2] (sc, subcutaneous). Besides, the ED50 amounted to 0.0008 mg/kg in series [3] and 0.4 mg/kg in series [4] (setting [11]). Moreover, the antidepressive action result in series [10] (41 patients) is listed as “there was an antidepressive action”. Besides, the tolerance entry in [10] (41 patients, all cases) is listed as “excellent tolerance in all cases”. Besides, the “cases with a very good antipsychotic action in sudden attacks of delirium” value in [10] (of 41 patients) was 38 cases.

These data come from patent publication US4401822A, “Derivatives of 4-amino-5-alkyl sulphonyl orthoanisamides” (Societe de'Etudes Scientifiques et Industrielles de …, priority 1978, dated 1983).
